Data as given in patent US20090247560A1, “Diaryl ketimine derivative” (Banyu Pharmaceutical Co., Ltd., priority 2006, published 2009).

Biological target: T1, human MCH-1R (Homo sapiens, UniProt Q99705)
T1 construct: expressed in transfected cells; host or cells: CHO-K1 (American Type Culture Collection), membrane samples
Test: MCH binding inhibition test
Conditions: inhibition of specific [125I]MCH binding to membranes of CHO-K1 cells expressing human MCH-1R; 25° C., one hour, pH 7.4
Method: A human MCH-1R encoding cDNA sequence [FEBS Letters, Vol. 398, 253 (1996); Biochimica et Biophisica Acta, Vol. 1401, 216 (1998)] was cloned to a plasmid vector pEF/myc/cyto (Invitrogen Corporation). The obtained expression vector was transfected to host cells CHO-K1 (American Type Culture Collection) using Lipofectamine Plus Reagent (Life Technology Inc.) to provide MCH-1R expression cells.
Membrane samples prepared from the MCH-1R expression cells were incubated with each test compound and […] of [^125I]MCH (NEN Co.), in an assay buffer (50 mM Tris buffer comprising 10 mM magnesium chloride, 2 mM ethylenediamine tetraacetate, 0.01% bacitracin and 0.2% bovine serum albumin; pH 7.4) at 25° C. for an hour, followed by filtration through a glass filter CF/C (Wattman Co.). After washing the glass filter with 50 mM Tris buffer (pH 7.4) comprising 10 mM magnesium chloride, 2 mM ethylenediamine tetraacetate and 0.04% Tween-20, the radioactive activity on the glass filter was measured.

T1 sequence (Q99705 whole entry): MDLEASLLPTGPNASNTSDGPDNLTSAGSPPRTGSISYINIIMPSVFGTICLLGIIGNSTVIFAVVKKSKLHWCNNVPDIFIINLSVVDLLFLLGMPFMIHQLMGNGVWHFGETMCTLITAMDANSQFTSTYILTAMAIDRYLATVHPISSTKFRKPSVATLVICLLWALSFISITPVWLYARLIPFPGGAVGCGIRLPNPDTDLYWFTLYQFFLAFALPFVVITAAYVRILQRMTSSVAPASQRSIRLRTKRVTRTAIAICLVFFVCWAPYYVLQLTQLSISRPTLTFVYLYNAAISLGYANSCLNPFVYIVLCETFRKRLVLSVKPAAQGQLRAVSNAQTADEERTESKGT

| Compound | IC50 |
| --- | --- |
| Cn1cc2c(cc1=O)C1(CCN(Cc3ccc(/C(=N/OCF)c4ccc(F)c(F)c4)nc3)CC1)OC2 [Example 3-1-15, 1′-[(6-{(E)-(3,4-difluorophenyl)[(fluoromethoxy)imino]methyl}-3-pyridinyl)methyl]-5-methyl-3,5-dihydro-6H-spiro[furo[3,4-c]pyridine-1,4′-piperidin]-6-one] | 8.37 nM |
| Cn1cc2c(cc1=O)C1(CCN(Cc3ccc(/C(=N/OCC#N)c4ccc(F)c(F)c4)nc3)CC1)OC2 [Example 2-10-2, {[((1E)-(3,4-difluorophenyl){5-[(5-methyl-6-oxo-5,6-dihydro-1′H,3H-spiro[furo[3,4-c]pyridine-1,4′-piperidin]-1′-yl)methyl]pyridin-2-yl}methylene)amino]oxy}acetonitrile] | 9.03 nM |
| CCO/N=C(\c1ccc(F)c(F)c1)c1ncc(CN2CCC3(CC2)OCc2ccncc23)cn1 [Example 1-3-2, (E) or (Z)-(3,4-difluorophenyl)[5-(1H,1′H-spiro[furo[3,4-c]pyridine-3,4′-piperidin]-1′-ylmethyl)pyrimidin-2-yl]methanone O-ethyloxime] | 8.9 nM |
| FCCO/N=C(/c1ccc(CN2CCC3(CC2)OCc2ccncc23)cc1)c1ccc(F)c(F)c1 [Example 2-1-2, (Z)-(3,4-difluorophenyl)[4-(1H,1′H-spiro[furo[3,4-c]pyridine-3,4′-piperidin]-1′-ylmethyl)phenyl]methanone O-(2-fluoroethyl)oxime] | 0.07 nM |
| CN(C)C(=O)CO/N=C(/c1ccc(CN2CCC3(CC2)OCc2cc(F)ncc23)cc1)c1ccc(F)c(F)c1 [Example 2-6, 2-{[((1Z)-(3,4-difluorophenyl){4-[(6-fluoro-1H,1′H-spiro[furo[3,4-c]pyridine-3,4′-piperidin]-1′-yl)methyl]phenyl}methylene)amino]oxy}-N,N-dimethylacetamide] | 0.27 nM |
| CC(c1ccc(/C(=N/OCC(C)(C)O)c2ccc(F)c(F)c2)nc1)N1CCC2(CC1)OCc1ccncc12 (single isomer, unassigned) [Example 3-1-13, (E)-(3,4-difluorophenyl){5-[1-(1H,1′H-spiro[furo[3,4-c]pyridine-3,4′-piperidin]-1′-yl)ethyl]-2-pyridinyl}methanone O-(2-hydroxy-2-methylpropyl)oxime] | 4.01 nM |
| CC(c1ccc(/C(=N/OCCF)c2ccc(F)c(F)c2)nc1)N1CCC2(CC1)OCc1ccncc12 (single isomer, unassigned) [Example 2-1-3, (E)-(3,4-difluorophenyl){5-[1-(1H,1′H-spiro[furo[3,4-c]pyridine-3,4′-piperidin]-1′-yl)ethyl]pyridin-2-yl}methanone O-(2-fluoroethyl)oxime] | 1.55 nM |
| CCO/N=C(\c1ccc(F)c(F)c1)c1ccc(CN2CCC3(CC2)OCc2cc[n+]([O-])cc23)cn1 [Example 3-1-11, (E)-(3,4-difluorophenyl){5-[(5-oxido-1H,1′H-spiro[furo[3,4-c]pyridine-3,4′-piperidin]-1′-yl)methyl]-2-pyridinyl}methanone O-ethyloxime] | 4.7 nM |
